We go through nine molecules from patent US20030207830A1, “Mutant NDP kinases for antiviral nucleotide analog activation and therapeutic uses thereof” (priority 2002, published 2003).

For experiment [1], the target named is T1, Dictyostelium NDP Kinase wt (Dictyostelium discoideum, UniProt P22887).
T1 construct: made in house
Kind of experiment: Pre-steady-state fluorescence stopped-flow phosphotransfer from nucleoside triphosphates, wild type Dd-NDPK. The class given is biochemical. The conditions noted are these: average of three determinations. Here is the method:
(§1) The binding constants were determined at equilibrium by recording the increase in fluorescence (Schneider, 2000).
After mixing NDPK (1 μM) and NTP or an analogTP (10-500 μM), the intrinsic protein fluorescence was recorded for 10-200 sec. In each experiment, 400 pairs of data were recorded, and the data from 3-4 identical experiments were averaged and fitted to a number of non-linear analytical equations using the software provided by Hi-Tech.
(§2) The data were analyzed using the reaction scheme: [drawing 1]
The rate of this observed single step is: [formula]
(§3) and reaches a limiting value (k+2) at NTP saturation. […] Therefore, catalytic efficiencies of phosphorylation (CEphos=k+2/(k−1/k+1)=k+2/KS) were measured, which are equivalent to second order constants and allow a reliable comparison of a variety of NDP kinase substrates.

Experiment [2] deals with T2, Dictyostelium NDP Kinase N119S (Dictyostelium discoideum, UniProt P22887, N119S).
T2 construct: made in house
T2 sequence (P22887 whole entry N119S): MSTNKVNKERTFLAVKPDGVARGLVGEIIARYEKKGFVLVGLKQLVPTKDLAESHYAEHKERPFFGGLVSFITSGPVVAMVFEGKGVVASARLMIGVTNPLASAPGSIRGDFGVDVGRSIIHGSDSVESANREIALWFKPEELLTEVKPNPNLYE
Kind of experiment: Pre-steady-state fluorescence stopped-flow phosphotransfer from nucleoside triphosphates, N119S Dd-NDPK. Type of experiment: biochemical. The conditions noted are these: pre-steady state, stopped-flow; average of three determinations. Here is the method:
(§4) All numbers in italics have already been published (Schneider, 1998, 2000) The kinetic constants were measured at the pre-steady-state level using a fluorescence stopped-flow device. The binding constants were determined at equilibrium by recording the increase in fluorescence (Schneider, 2000). Values are the average of three independent determinations.
(§5) As the diphosphate form of analogs were not always available, the triphosphate analogs were used to study phosphate transfer in reaction as in Scheme I. Experiments were performed with an Hi-Tech DX2 microvolume stopped-flow reaction (Schneider, 1998) at Aexc=296 nm (for Ado derivatives) or […] (for other nucleotides), 2 mm excitation slit and a 320 nm cutoff filter at the emission. After mixing NDPK (1 μM) and NTP or an analogTP (10-500 μM), the intrinsic protein fluorescence was recorded for 10-200 sec. In each experiment, 400 pairs of data were recorded, and the data from 3-4 identical experiments were averaged and fitted to a number of non-linear analytical equations using the software provided by Hi-Tech. All curves fitted to single exponentials.
as §2
(§6) In both the forward and the reverse reactions, the product concentration remains very low, thus the product binding can be neglected, and the observed single step could be attributed to the phosphotransfer (Schneider, 1998). The rate of this observed single step is: [formula]
(§7) and reaches a limiting value (k+2) at NTP saturation. Saturation could not be obtained with the concentrations of any NTP used here. Therefore, catalytic efficiencies of phosphorylation (CEphos=k+2/(k−1/k+1)=k+2/KS) were measured, which are equivalent to second order constants and allow a reliable comparison of a variety of NDP kinase substrates.

Experiment [3] concerns the target T3, Dictyostelium discoideum NDP kinase (Dd-NDPK) variant N119S, SEQ ID NO: 1 (Dictyostelium discoideum, UniProt P22887, N119S).
T3 construct: made in house
Description: Pre-steady-state phosphotransfer, fluorescence stopped-flow. The conditions noted are these: catalytic efficiency of phosphotransfer, N119S, pre-steady state. The class given is biochemical. Here is the method: (§8) (A) Kinetics of reaction of phosphorylated Dictyostelium wild type and N119S NDP kinases by 100 μM Acyclovir diphosphate (Acy-DP). The phosphorylated enzyme was prepared with a stoichiometry #1 as described (Deville-Bonne 1996). The kinases were preincubated with ATP in excess in buffer T (50 mM Tris-HCl, pH 7.5, 5 mM MgCl2 and 75 mM KCl). The increase in fluorescence upon mixing the phospho-enzyme (1 μM, final concentration) with Acy-DP in buffer T at 20° C. was monitored with a stopped-flow. The solid lines represent the best fit of each curve to a monoexponential.
(§9) (B) Concentration dependence of the rate constant on Acy-DP concentation. The pseudo-first order rate constant for the reaction (kobs) was plotted against Acy-DP.
as §4
(§10) Wild type human NDPK-A and the mutants were expressed and purified according to Schneider et al., 2000, Mol Pharm. Recombinant wild type and mutant Dd-NDPK were obtained as described (Schneid, 1998a), except for N119Y NDP kinase which was partially purified by Q sepharose FF chromatography. Each protein was characterized by […] electrophoresis. The concentration of 17 kDa subunits of the enzyme was either determined by Bradford assay ([…]) or using an absorbance coefficient of ΔA^280=1.249 for a 1 mg/mL solution of human wild type and N115S NDPK-A, and =0.55 for wild type and mutant N119S, N119T Dd-NDP kinases, respectively.
as §5, §2, §6, §7

In experiment [4] the target is T4, Dictyostelium discoideum NDP kinase (Dd-NDPK), wild type (Dictyostelium discoideum, UniProt P22887).
T4 construct: made in house
T4 sequence (P22887 whole entry): as the sequence (P22887 whole entry N119S) above, with S119N counted along it
The description is as above. The conditions noted are these: catalytic efficiency of phosphotransfer, wt. The class given is biochemical. As for the experimental part: as §8, §9, §4, §10, §5, §2, §6, §7

In experiment [5] the target is T5, Dictyostelium discoideum NDP kinase inactive variant EI (H122G-F64W) (Dictyostelium discoideum, UniProt P22887, F64W/H122G).
T5 construct: made in house
T5 sequence (P22887 whole entry F64W/H122G): as the sequence (P22887 whole entry N119S) above, with F64W, S119N, H122G counted along it
Kind of experiment: biochemical. Type of experiment: binding. As for the experimental part:
as §1
(§11) Analog binding affinity was measured using a variant of Dd-NDPK (EI) as described (Schneider, 2000). […] The mutation N119S was inserted in EI in order to measure the nucleotide affinity by fluorescence titration.
(§12) Altered bases as compared to the wild type sequence are underlined in bold. Sequences were checked by automatic sequencing. The mutant EI-N119S was obtained by mutation of the previously described F64W-H122G mutated NDP kinase (here called EI) (Schneider 2000).

Experiment [6] deals with T6, Dictyostelium discoideum NDP kinase inactive variant EI-N119S (H122G-F64W-N119S) (Dictyostelium discoideum, UniProt P22887, F64W/H122G/N119S).
T6 construct: made in house
T6 sequence (P22887 whole entry F64W/N119S/H122G): as the sequence (P22887 whole entry N119S) above, with F64W, H122G counted along it
Kind of experiment: biochemical. The class given is binding. As for the experimental part: as §1, §11, §12

The test system of experiment [7] is human pancreatic adenocarcinoma cell lines. The conditions noted are these: 4-fold overexpression of mitochondrial deoxyguanosine kinase; cited from earlier work.
Experiment [8] deals with T7, Inactive-N119S Dd-NDPK (EI-N119S) (Dictyostelium discoideum, UniProt P22887, F64W/H122G/N119S).
T7 construct: made in house
T7 sequence (P22887 whole entry F64W/N119S/H122G): as the sequence (P22887 whole entry N119S) above, with F64W, H122G counted along it
Description: Equilibrium fluorescence titration of nucleotide binding, inactive Dd-NDPK variant with N119S. Particulars: relative affinity of NTP for both enzymes. Here is the method: as §4
In contrast to what is observed with natural nucleotides, the Ser mutation specifically improves the catalytic efficiency with nucleotides analogs as shown in Table I; ddGTPs and AZT-TP react, respectively, 1.5 and 4 times faster with the N119S enzyme. […] Analog binding affinity was measured using a variant of Dd-NDPK (EI) as described (Schneider, 2000). This mutant (H122G-F64W) lacks the catalytic histidine, and a tryptophan replaces the phenylalanine stacking on the base in the active site (Schneider, 2000). The mutation N119S was inserted in EI in order to measure the nucleotide affinity by fluorescence titration. The Ser contribution to the binding was evaluated from the relative affinity of NTP for both enzymes (Table I).
for N119S, N119T and N119Y mutations, respectively. Altered bases as compared to the wild type sequence are underlined in bold. Sequences were checked by automatic sequencing. The mutant EI-N119S was obtained by mutation of the previously described F64W-H122G mutated NDP kinase (here called EI) (Schneider 2000).

Experiment [9] deals with T8, human NDP kinase A (NDPK-A, nm23-H1), wild type (Homo sapiens, UniProt P15531).
T8 construct: made in house
T8 sequence (P15531 whole entry): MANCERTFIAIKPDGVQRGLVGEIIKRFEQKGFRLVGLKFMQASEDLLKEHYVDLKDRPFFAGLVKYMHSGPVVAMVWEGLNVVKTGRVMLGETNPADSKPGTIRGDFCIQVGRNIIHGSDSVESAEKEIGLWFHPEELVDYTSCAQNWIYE
Description: Pre-steady-state phosphotransfer, fluorescence stopped-flow. The conditions noted are these: catalytic efficiency of phosphotransfer, NDPK-A, pre-steady state. The class given is biochemical. As for the experimental part:
(§13) FIG. 3 depicts the catalytic efficiency of NDPK-A and mutants for nucleoside analogs. The rates of phosphorylation of pure recombinant NDP kinases (1 μM) were measured at the pre-steady state in a fluorescence stopped-flow with d4T-TP (10 to 80 μM). The catalytic efficiency (expressed in M^−1s^−1) was determined from the variation of the rate as a function of analog as shown in FIG. 2 (▾, NDPK-A, ♦ L55H, ● N115S, ▪ L55H-N115S).
(§14) The activity assays were performed at the pre-steady state level.
as §10
as §5, with “Hi-Tech.” for “Hi-Tech. All curves fitted to single exponentials.”
as §2, §6, §3

The target of experiment [10] is T9, human NDP kinase A (NDPK-A) variant L55H (Homo sapiens, UniProt P15531, L55H).
T9 construct: made in house; host or cells: E. coli
T9 sequence (P15531 whole entry L55H): as the sequence (P15531 whole entry) above, with L55H counted along it
The description is as above. The class given is biochemical. The conditions noted are these: L55H, pre-steady state. Here is the method: as §13, §14
(§15) R, the specificity change, is the ratio of the catalytic efficiencies (for analog versus natural nucleotide) of the mutant compared to the wild type enzyme.
as §10
as §5, with “Hi-Tech.” for “Hi-Tech. All curves fitted to single exponentials.”
as §2, §6, §3

For experiment [11], the target named is T10, human NDP kinase A (NDPK-A) variant L55H-N115S, SEQ ID NO: 3 (Homo sapiens, UniProt P15531, L55H/N115S).
T10 construct: made in house; host or cells: E. coli
T10 sequence (P15531 whole entry L55H/N115S): as the sequence (P15531 whole entry) above, with L55H, N115S counted along it
The description is as above. Type of experiment: biochemical. Particulars: L55H-N115S, pre-steady state. As for the experimental part:
as §13, §14, §15, §10
as §5, with “Hi-Tech.” for “Hi-Tech. All curves fitted to single exponentials.”
as §2, §6, §3

The target of experiment [12] is T11, human NDP kinase A (NDPK-A) variant N115S, SEQ ID NO: 2 (Homo sapiens, UniProt P15531, N115S).
T11 construct: made in house; host or cells: E. coli
T11 sequence (P15531 whole entry N115S): as the sequence (P15531 whole entry) above, with N115S counted along it
The description is as above. The class given is biochemical. Particulars: N115S, pre-steady state. As for the experimental part:
as §13, §14, §15, §10
as §5, with “Hi-Tech.” for “Hi-Tech. All curves fitted to single exponentials.”
as §2, §6, §3

The conditions of experiment [13]: Dd-NDPK mutant; cited from earlier work.
The mark [14] stands for this setting: catalytic efficiency of phosphotransfer.

T3 sequence (P22887 whole entry N119S): as the sequence (P22887 whole entry N119S) above
T1 sequence (P22887 whole entry): as the sequence (P22887 whole entry N119S) above, with S119N counted along it

For the molecule `Nc1ncnc2c1ncn2[C@@H]1O[C@H](COP(=O)(O)OP(=O)(O)OP(=O)(O)O)[C@@H](O)[C@H]1O` [ATP], in experiment [1], the “k2/Ks wt (catalytic efficiency of phosphotransfer)” value (from here on “k2/Ks wt”) was found to be 4.5e+06 M⁻¹ s⁻¹. Also, in experiment [2], the “k2/Ks N119S (catalytic efficiency of phosphotransfer)” value (“k2/Ks N119S” for short) came to 250000 M⁻¹ s⁻¹. For the same molecule, the k2/Ks amounted to 250000 M⁻¹ s⁻¹ in experiment [3] and 4.5e+06 M⁻¹ s⁻¹ in [4]. For the same molecule, the Kd in experiment [5] stood at 200 nM; in [6] it was 2400 nM.

Regarding `Nc1nc2c(ncn2[C@@H]2O[C@H](COP(=O)(O)OP(=O)(O)OP(=O)(O)O)[C@@H](O)[C@H]2O)c(=O)[nH]1` [GTP], the “k2/Ks wt” value in experiment [1] worked out at 8e+06 M⁻¹ s⁻¹. Further, the “k2/Ks N119S” value in [2] was 700000 M⁻¹ s⁻¹. In addition, the k2/Ks in experiment [3] is 700000 M⁻¹ s⁻¹; in [4] it was 8e+06 M⁻¹ s⁻¹. Besides, the Kd in [5] is 150 nM; in experiment [6], 1100 nM.

With `Nc1nc2c(ncn2[C@@H]2O[C@H](CO)[C@@H](O)C2(F)F)c(=O)[nH]1` [dFdG], the sensitivity of cells result in experiment [7] was “enhanced sensitivity”.

For the molecule `Nc1nc(Cl)nc2c1ncn2[C@H]1C[C@H](O)[C@@H](CO)O1` [CdA], the sensitivity of cells entry in experiment [7] is “enhanced sensitivity”.

As for `Nc1nc2c(ncn2COCCOP(=O)(O)OP(=O)(O)OP(=O)(O)O)c(=O)[nH]1` [acyclovirTP, acyclovir-TP], the “k2/Ks N119S” value in experiment [2] was determined as 1650 M⁻¹ s⁻¹. For the same molecule, the “factor by which Ser 119 reinforces affinity (EI-N119S versus EI)” value in experiment [8] turned out to be 10 fold.

For `Nc1nc2c(ncn2[C@@H]2O[C@H](CO)[C@@H](O)[C@@H]2O)c(=O)[nH]1` [araG], the sensitivity of cells result in experiment [7] is “enhanced sensitivity”.

For `Cc1cn([C@H]2C[C@H](O)[C@@H](COP(=O)(O)OP(=O)(O)OP(=O)(O)O)O2)c(=O)[nH]c1=O` [dTTP], the “k2/Ks wt” value in experiment [1] is 5.7e+06 M⁻¹ s⁻¹. Besides, the “k2/Ks N119S” value in experiment [2] stood at 430000 M⁻¹ s⁻¹. Also, the k2/Ks is 430000 M⁻¹ s⁻¹ in experiment [3]; 5.7e+06 M⁻¹ s⁻¹ in [4]; 1.2e+06 M⁻¹ s⁻¹ in experiment [9]; 2e+06 M⁻¹ s⁻¹ in [10] (setting [14]); 450000 M⁻¹ s⁻¹ in experiment [11] (setting [14]); 100000 M⁻¹ s⁻¹ in experiment [12] (setting [14]). The Kd in experiment [5] was determined as 1200 nM; in experiment [6] it was 5200 nM. Also, the results for the “factor of rate versus wild type NDPK-A” value in experiment [10], in [11] and in experiment [12] were 1.8, 0.33 and 0.08, respectively.

B1: K16A: Dd-NDPK with Lys 16 mutated into Ala (Schneider 2001) (protein, UniProt P22887 1-155, looked up, variant K16A)
Nucleoside diphosphate …: MSTNKVNKERTFLAVAPDGVARGLVGEIIARYEKKGFVLVGLKQLVPTKDLAESHYAEHKERPFFGGLVSFITSGPVVAMVFEGKGVVASARLMIGVTNPLASAPGSIRGDFGVDVGRNIIHGSDSVESANREIALWFKPEELLTEVKPNPNLYE
Regarding B1, in [13], the “factor of decrease of catalytic constant of phosphotransfer” value is on record as 100.

B2: N119A: Dd-NDPK with Asn 119 mutated into Ala (Schneider 2001) (protein, UniProt P22887 1-155, looked up, variant N119A)
Nucleoside diphosphate …: MSTNKVNKERTFLAVKPDGVARGLVGEIIARYEKKGFVLVGLKQLVPTKDLAESHYAEHKERPFFGGLVSFITSGPVVAMVFEGKGVVASARLMIGVTNPLASAPGSIRGDFGVDVGRAIIHGSDSVESANREIALWFKPEELLTEVKPNPNLYE
Take B2: the “effect of mutation on kinetic parameters of the enzyme” value in [13] is given as “did not affect significantly”.
